Test results from paper PMC5234788 (PLoS ONE, 2017).

Legend:
Format in all cases: in vivo
male CD-1 ICR mice [1] = test: Elevated plus-maze test; conditions: DZP 2 mg/kg, i.p., P < 0.05 vs control
Excerpt: The elevated plus-maze test is widely used for the screening and evaluation of anxiolytic drugs. The apparatus consists of two open arms (30 cm × 5 cm) and two enclosed arms (30 cm × 5 cm × 15 cm), which is elevated 45 cm above the ground. The entire maze was made of clear Plexiglas and illuminated by four 30 W white lights with 300 lx light intensity arranged as a cross 100 cm above the maze. 48 male CD-1 ICR mice were randomly divided into either the vehicle group, one of three doses of l–THBr groups, or the diazepam group. 30 min after injection, mice were gently placed on the center platform facing an open arm, and the number of entries and the time spent in both arms were recorded by a video camera for 5 min. The results were expressed as the percentage of entries into the open arms (%) = (the number of entries into the open arms / the total number of entries into the four arms) × 100%; and the percentage of time spent in the open arms (%) = (time spent in the open arms / total time spent in the four arms) × 100%.
In a separate experiment, WAY100635 (a 5-HT1A antagonist) was used to test whether the anxiolytic-like activity of l-THBr is mediated by the activation of the 5-HT1A receptor. Forty male CD-1 ICR mice were randomly divided into one of four groups: vehicle, WAY100635 (3 mg/kg, i.p.), l–THBr (5 mg/kg, i.p.) or WAY100635 (3 mg/kg, i.p.) + l–THBr (5 mg/kg, i.p.). Mice were administered vehicle or WAY100635 followed by vehicle or l–THBr (5 mg/kg) injections 15 min later. The test was performed 30 min after the administration of l-THBr or vehicle.

male CD-1 ICR mice [2] = test: Light-dark box test; conditions: DZP 2 mg/kg, 30 min before test, P < 0.05 vs vehicle
Excerpt: The light-dark box test is a sensitive model to detect activity in disorders related to anxiety, based on the innate aversion of rodents to brightly lit areas and on their spontaneous exploratory behavior in response to a novel environment. The light-dark transition box is a polypropylene animal cage (44 cm × 21 cm × 21 cm), which is divided into two compartments, a light box (illuminated by a 60 W light source with 1000 lx light intensity) and a dark box. Forty-eight male CD-1 ICR mice were placed in the light box 30 min after l–THBr or DZP injection and allowed to move freely to both boxes for 5 min. The number of transitions between the two boxes were recorded by a video camera.

male CD-1 ICR mice [3] = test: Locomotor activity test; conditions: DZP 2 mg/kg, i.p., 60 min
Excerpt: The spontaneous activity video analysis system consists of 8 sound-attenuated chambers (40 cm × 40 cm × 65 cm) with a built-in infrared camera. (JL Behave, Shanghai Ji-Liang Software Technology Co., Ltd). During the behavioral tests, the experimenter was outside the testing room, and the chambers were cleaned between successive runs. Forty male CD-1 ICR mice were allowed to acclimate for three days in home cages and were handled for another three days to minimize stress after arrival in the animal facility. On the following day, after habituation to the activity chambers for 60 min, mice were administered vehicle, diazepam (DZP, 2 mg/kg, i.p.) or l–THBr (1, 5, or 10 mg/kg, i.p.) and immediately placed into the test chambers to record their locomotor activity for 60 min.

Compound: CN1C(=O)CN=C(c2ccccc2)c2cc(Cl)ccc21 [Diazepam, reference compound]
- percentage of entries into the open arms (male CD-1 ICR mice [1]): significant increase
- percentage of time spent in the open arms (male CD-1 ICR mice [1]): significant increase
- number of transitions between the light/dark sides (male CD-1 ICR mice [2]): increased
- influence on locomotor activity (travel distance) (male CD-1 ICR mice [3]): no influence
